Measurements published in paper PMC4795174 (Biochemistry, 2015).

Biological target: BlaC (β-lactamase) (Mycobacterium tuberculosis, UniProt P9WKD3)
Format: biochemical
Details: read-out: KI

BlaC (β-lactamase), sequence (P9WKD3 41-307): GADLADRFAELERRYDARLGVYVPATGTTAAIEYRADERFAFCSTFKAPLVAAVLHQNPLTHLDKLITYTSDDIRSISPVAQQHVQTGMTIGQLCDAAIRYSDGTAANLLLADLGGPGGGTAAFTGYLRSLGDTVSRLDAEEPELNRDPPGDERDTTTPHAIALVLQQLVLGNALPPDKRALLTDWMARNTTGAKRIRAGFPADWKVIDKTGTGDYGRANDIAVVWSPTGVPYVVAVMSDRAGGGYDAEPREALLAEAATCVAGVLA

For `O=C(O)[C@H]1/C(=C/CO)O[C@@H]2CC(=O)N21` [clavulanate], the KI (inactivation) was 6.3 µM.
